According to patent US10590129B2 (Incozen Therapeutics Pvt. Ltd., priority 2010, dated 2020):
pIC50: −log10 of the molar value. Where two headings read alike, the source gives them in different places.

What was measured:
c-Met [1] = target: T1, c-Met (Homo sapiens, UniProt P08581); details: cited from earlier work
RON = RON (Homo sapiens, UniProt Q04912); details: cited from earlier work
Met kinase [2] = target: T2, Met kinase (Homo sapiens, UniProt P08581); experiment: Inhibition of HGF-induced Met phosphorylation in MDA-MB-231 cells; assay type: cell-based; parameters: endogenous in cells; host or cells: MDA-MB-231; details: HGF 50 ng/ml, read-out: HGF stimulated Met phosphorylation (IC50)
c-Met [3] = target: T1, c-Met; experiment: Inhibition of c-Met kinase phosphorylation in MKN-45 cells (cell based ELISA); parameters: endogenous in cells; host or cells: MKN-45; details: 1 h
Experimental: Inhibition of c-Met Kinase Phosphorylation in MKN-45 Cells:
MKN45 cells are a prototype of “c-Met addicted” cells having constitutively activated c-Met kinase similar to that observed in sub-sects of gastric or hepatocellular cancer patients with dysregulated c-Met kinase activity. Inhibition of Met phosphorylation was determined using a cell based ELISA assay according to the following schedule:
Day 1: MKN-45 cells were plated in 96-well plates in complete growth medium.
Day 2: Inhibitors at the desired concentration were added to the plates and incubated for 1 h and lysed subsequently.
Lysates were transferred to NUNC Maxisorp plates coated with anti-cMet receptor antibody. Phopho-tyrosine mAb and HRP-lined anti-mouse IgG were used as primary and secondary antibodies respectively. Optical density was measured on a microplate reader (BMG Labtech., Germany) at […]. Inhibition of c-Met phosphorylation in this cell line indicates a therapeutic potential for test compounds in patients diagnosed with cancers caused by aberrant c-Met kinase signalling.

MKN-45 cells [4] = experiment: Induction of apoptosis in MKN-45 cells (caspase-3 activity); assay type: cell-based, human; details: @ 3 μM, 24 h, caspase-3, percent of maximum response
Experimental: 6. Induction of Apoptosis in MKN-45 Cells:
Induction of Caspase 3 was measured fluorimetrically. Cells were incubated with desired concentrations of the compound for 24 h. After incubation, cells were harvested and counted. An equal number of viable cells per well (0.3×10^6 cells) were used for determination of caspase-3 activity. Increase in apoptosis manifested by an elevation in caspase-3 levels was determined using a Caspase-3 kit from Millipore. Data are expressed as a percent of the maximum response (100%).

Akt [5] = experiment: Inhibition of Akt phosphorylation in NCI-H441 cells (western blot, pAkt S473); assay type: cell-based; details: Homo sapiens
Experimental: (§1) Inhibition of Akt Phosphorylation in MKN-45 or NCI-11441 Cells:
(§2) Akt is a serine-threonine kinase and a downstream marker regulated by c-Met kinase via the PI3K pathway. Once phosphorylated, Akt regulates several end processes including cell survival and growth. Cells were treated with 0−1000 nM of test compounds, lysed, and the proteins separated on a 10% SDS-PAGE. Following separation, proteins were transferred onto a nitrocellulose membrane and detected by chemiluminescence after incubation with pAkt S473 mAb (primary) and rabbit anti-mouse Ab (secondary). Intensity of the bands was determined using ImageJ 1.42q (NIH, USA) and normalized to Actin (loading control).

Met kinase [6] = target: T2, Met kinase; experiment: MET kinase assay (colorimetric determination of c-Met kinase activity, HTScan Met Kinase Assay Kit); assay type: biochemical; parameters: purchased Cell Signalling Technology, Beverly, Mass; details: for pIC50: c-Met kinase
Description: 1. MET Kinase Assay Protocol:
Colorimetric Determination of c-Met Kinase Activity
The receptor tyrosine kinase c-Met is a heterodimeric transmembrane glycoprotein involved in several cellular processes that aid in tumor progression. Phosphorylation of the tyrosine residues in the c-Met kinase domain is critical for its activity and the resulting down-stream effects. The colorimetric assay allows detection of the phosphorylated form of a biotinylated peptide upon activation of human recombinant Met kinase.
MET Kinase Assay Protocol:
c-Met Kinase activity shall be determined using an HTScan® Met Kinase Assay Kit (Cell Signalling Technology, Beverly, Mass.) with modifications. All incubations are carried out at room temperature. Briefly, 12.5 μl of a 4× reaction cocktail (DTT/Kinase buffer containing appropriate quantity of human Met kinase) is added to each well of a 96-well plate containing 12.5 μl pre-diluted compound of interest and incubated for 5 minutes. After the initial incubation, 25 μl/well of 2×ATP/biotinylated peptide is added and incubated for an additional 30 minutes. The reaction is terminated by the addition of 50 μl/well stop buffer (50 mM EDTA, pH 8.0). The reaction mixture (25 μl/well) is then transferred to a streptavidin coated plate (Perkin Elmer, Cat#4009-0010) containing 75 μl dH2O and incubated for 60 minutes. The plate is washed with 200 μl/well wash buffer (1×PBS, 0.05% Tween-20). After washing, 100 μl/well phospho-tyrosine mAb (1:1000 in wash buffer containing 1% BSA) is added and incubated for 60 minutes. After another round of washes, 100 μl/well europium labelled anti-mouse IgG (1:500 in wash buffer containing 1% BSA) is added and incubated for an additional 30 minutes. Following additional washes, 100 μl/well Delfia® enhancement solution (Perkin Elmer, Cat#1244-105) is added and incubated for 45 minutes. Florescence is measured on a microplate reader (BMG Labtech., Germany) at 340 nm (excitation) and 615 nm (emission) for calculating % inhibition. Data generated can be analyzed further using Graphpad Prism (Graphpad software, San Diego Calif.) for determination of IC50.

c-Met [7] = target: T1, c-Met; experiment: Inhibition of c-Met kinase phosphorylation in NCI-H441 cells (cell based ELISA); parameters: endogenous in cells; host or cells: NCI-H441; details: 1 h
Experimental: Inhibition of c-Met Kinase Phosphorylation in NCI—H441 Cells:
Inhibition of Met phosphorylation was determined using a cell based ELISA assay according to the following schedule:
Day 1: NCI—H441 cells were plated in 96-well plates in complete growth medium.
Day 2: Inhibitors at the desired concentration were added to the plates, incubated for 1 h and lysed subsequently. Lysates were transferred to NUNC Maxisorp plates coated with anti-cMet receptor antibody. Phopho-tyrosine mAb and HRP-lined anti-mouse IgG were used as primary and secondary antibodies respectively. Optical density was measured on a microplate reader (BMG Labtech., Germany) at […].

Akt [8] = experiment: Inhibition of Akt phosphorylation in MKN-45 cells (western blot, pAkt S473); assay type: cell-based; details: Homo sapiens
Experimental: as §1, §2

MKN-45 cells [9] = experiment: Inhibition of MKN-45 proliferation (MTT); assay type: cell-based, human; details: for GI50 / inhibition at 0.1 µM: Homo sapiens, MKN-45, MKN-45 proliferation; for Inhibition (% Inhibition of MKN-45 proliferation) / inhibition at 0.1 µM: 0.1 μM
Method in brief: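 High-Met human gastric adenocarcinoma MKN-45 cells plated in complete growth medium, compounds added next day and viability read 3 days later by MTT dye reduction.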

T2 sequence (P08581 25-1390): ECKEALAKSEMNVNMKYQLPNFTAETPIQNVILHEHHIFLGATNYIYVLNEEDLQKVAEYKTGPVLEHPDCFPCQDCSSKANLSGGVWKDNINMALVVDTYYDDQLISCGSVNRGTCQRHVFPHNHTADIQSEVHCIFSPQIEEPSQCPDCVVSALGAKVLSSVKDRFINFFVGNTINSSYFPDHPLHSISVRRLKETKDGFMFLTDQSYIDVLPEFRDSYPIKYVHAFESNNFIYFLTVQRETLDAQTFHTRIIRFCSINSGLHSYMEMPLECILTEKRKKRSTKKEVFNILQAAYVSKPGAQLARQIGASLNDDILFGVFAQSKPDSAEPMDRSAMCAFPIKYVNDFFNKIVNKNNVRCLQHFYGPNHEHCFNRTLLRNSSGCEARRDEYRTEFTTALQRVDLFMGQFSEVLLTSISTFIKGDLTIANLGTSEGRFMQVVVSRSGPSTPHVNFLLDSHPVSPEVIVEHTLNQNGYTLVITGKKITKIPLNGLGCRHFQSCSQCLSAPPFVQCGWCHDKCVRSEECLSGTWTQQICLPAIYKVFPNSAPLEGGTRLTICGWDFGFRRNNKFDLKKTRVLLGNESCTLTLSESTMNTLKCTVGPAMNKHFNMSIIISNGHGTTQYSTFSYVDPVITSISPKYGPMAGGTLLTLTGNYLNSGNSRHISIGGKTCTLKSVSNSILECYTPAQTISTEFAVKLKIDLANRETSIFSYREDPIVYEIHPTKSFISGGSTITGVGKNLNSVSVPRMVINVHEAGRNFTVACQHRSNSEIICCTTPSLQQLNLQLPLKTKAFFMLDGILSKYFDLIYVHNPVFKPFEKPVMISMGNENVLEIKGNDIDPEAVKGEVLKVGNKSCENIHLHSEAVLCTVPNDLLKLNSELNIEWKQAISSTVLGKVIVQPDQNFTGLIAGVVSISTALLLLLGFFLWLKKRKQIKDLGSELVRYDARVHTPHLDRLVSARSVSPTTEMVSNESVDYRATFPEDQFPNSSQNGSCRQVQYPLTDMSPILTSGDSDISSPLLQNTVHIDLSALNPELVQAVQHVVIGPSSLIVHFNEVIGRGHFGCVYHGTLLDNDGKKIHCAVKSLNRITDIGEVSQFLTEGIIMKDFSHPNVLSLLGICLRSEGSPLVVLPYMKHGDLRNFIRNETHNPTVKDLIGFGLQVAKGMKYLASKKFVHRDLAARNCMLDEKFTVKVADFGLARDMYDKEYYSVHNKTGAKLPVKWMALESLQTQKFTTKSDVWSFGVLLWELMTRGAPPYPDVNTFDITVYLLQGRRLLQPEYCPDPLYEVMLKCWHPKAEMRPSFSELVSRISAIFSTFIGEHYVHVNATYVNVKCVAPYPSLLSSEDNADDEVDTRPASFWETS
T1 sequence (P08581 25-1390): as above
RON, sequence (Q04912 25-1400, species assumed): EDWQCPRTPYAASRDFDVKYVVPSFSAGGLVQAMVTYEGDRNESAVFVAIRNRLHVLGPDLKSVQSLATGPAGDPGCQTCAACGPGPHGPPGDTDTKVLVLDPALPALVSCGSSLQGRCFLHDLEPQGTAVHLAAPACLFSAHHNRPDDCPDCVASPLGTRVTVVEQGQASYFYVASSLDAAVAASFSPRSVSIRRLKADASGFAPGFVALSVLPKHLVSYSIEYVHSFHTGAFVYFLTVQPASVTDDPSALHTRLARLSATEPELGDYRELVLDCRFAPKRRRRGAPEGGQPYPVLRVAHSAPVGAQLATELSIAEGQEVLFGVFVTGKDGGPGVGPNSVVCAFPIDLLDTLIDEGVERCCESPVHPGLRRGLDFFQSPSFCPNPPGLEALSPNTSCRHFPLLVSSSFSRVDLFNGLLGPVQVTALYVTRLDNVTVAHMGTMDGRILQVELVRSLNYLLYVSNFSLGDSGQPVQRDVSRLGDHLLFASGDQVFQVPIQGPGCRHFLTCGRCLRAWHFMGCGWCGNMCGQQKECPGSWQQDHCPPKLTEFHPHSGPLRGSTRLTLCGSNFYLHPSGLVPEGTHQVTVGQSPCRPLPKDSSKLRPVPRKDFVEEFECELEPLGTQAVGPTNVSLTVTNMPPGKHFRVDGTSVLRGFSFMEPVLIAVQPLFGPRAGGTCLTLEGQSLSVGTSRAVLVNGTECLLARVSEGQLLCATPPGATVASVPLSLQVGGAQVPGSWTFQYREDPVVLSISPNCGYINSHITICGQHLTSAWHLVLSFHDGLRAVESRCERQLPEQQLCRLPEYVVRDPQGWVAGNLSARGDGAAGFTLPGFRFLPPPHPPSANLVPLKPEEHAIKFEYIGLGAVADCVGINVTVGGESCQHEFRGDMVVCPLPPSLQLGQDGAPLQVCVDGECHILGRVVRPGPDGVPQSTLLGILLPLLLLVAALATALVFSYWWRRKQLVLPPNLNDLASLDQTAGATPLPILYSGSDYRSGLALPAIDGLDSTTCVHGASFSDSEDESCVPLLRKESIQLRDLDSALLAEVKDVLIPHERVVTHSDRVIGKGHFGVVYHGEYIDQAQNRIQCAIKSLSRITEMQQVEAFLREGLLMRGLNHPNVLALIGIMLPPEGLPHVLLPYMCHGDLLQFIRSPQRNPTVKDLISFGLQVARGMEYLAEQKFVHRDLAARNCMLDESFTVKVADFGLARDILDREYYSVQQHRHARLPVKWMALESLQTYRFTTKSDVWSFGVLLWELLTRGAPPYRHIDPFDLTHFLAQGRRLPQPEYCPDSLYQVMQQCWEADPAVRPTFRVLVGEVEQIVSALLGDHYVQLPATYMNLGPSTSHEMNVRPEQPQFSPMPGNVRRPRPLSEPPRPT

Structure (SMILES)	melting point [°C]	pIC50 (Met kinase [2])	pIC50 (c-Met [3])	IC50 (Akt [5]) [nM]	inhibition at 1 µM (Met kinase [6]) [%]	pIC50 (Met kinase [6])	pIC50 (c-Met [7])	IC50 (Akt [8]) [nM]	GI50 (MKN-45 cells [9]) [nM]	pIC50 (c-Met [1])	pIC50 (RON)	Apoptosis in MKN-45 cells (percentage induction) (MKN-45 cells [4])	Inhibition (% Inhibition of MKN-45 proliferation) (MKN-45 cells [9])	inhibition at 0.1 µM (MKN-45 cells [9]) [%]
COc1ccc2c(Oc3ccc(NC(=O)c4c(C)n(CC(C)(C)O)n(-c5ccccc5)c4=O)nc3)ccnc2c1 [AMG-458]										8.40	8.05			
NC(=O)c1ccc(-c2ccc3nnn(Cc4ccc5ncccc5c4)c3n2)cc1F [Ex 15, 2-Fluoro-4-(3-(quinolin-6-ylmethyl)-3H-[1,2,3]triazolo[4,5-b]pyridin-5-yl)benzamide]	198 to 200	≥ 8.00	6.82 to 7.30	≤ 25	75 to 100	7.00 to 7.30	7.30 to 8.00	100 to 200	50 to 150			A (A = >50 to 100%)		
O=C(Nc1nc[nH]n1)c1ccc(-c2ccc3nnn(Cc4ccc5ncccc5c4)c3n2)cc1F [Ex 52, 2-Fluoro-4-(3-(quinolin-6-ylmethyl)-3H-[1,2,3]triazolo[4,5-b]pyridin-5-yl)-N-(1H-1,2,4-triazol-3-yl)benzamide]	265 to 267		≥ 7.30	≤ 25	75 to 100	≥ 7.30	≥ 8.00	50 to 100	≤ 50			A (A = >50 to 100%)	D (D = <25%)	
NC(=O)c1ccc(-c2ccc3nnn(Cc4cc5cccnc5cc4F)c3n2)cc1Cl [Ex 134, 2-Chloro-4-(3-((7-fluoroquinolin-6-yl)methyl)-3H-[1,2,3]triazolo[4,5-b]pyridin-5-yl)benzamide]		7.30 to 8.00	≥ 7.30	≤ 25	75 to 100	≥ 7.30	≥ 8.00	≤ 25	≤ 50			A (A = >50 to 100%)		50 to 75
OCCn1cc(-c2ccc3nnn(Cc4ccc5ncccc5c4)c3n2)cn1 [Ex 146, 2-(4-(3-(Quinolin-6-ylmethyl)-3H-[1,2,3]triazolo[4,5-b]pyridin-5-yl)-1H-pyrazol-1-yl)ethanol]			6.82 to 7.30	25 to 50			7.00 to 7.30		50 to 150					

Now from value to compound, other results behind:

melting point [°C]	pIC50 (Met kinase [2])	pIC50 (c-Met [3])	IC50 (Akt [5]) [nM]	inhibition at 1 µM (Met kinase [6]) [%]	pIC50 (Met kinase [6])	pIC50 (c-Met [7])	IC50 (Akt [8]) [nM]	GI50 (MKN-45 cells [9]) [nM]	Structure (SMILES)	pIC50 (c-Met [1])	pIC50 (RON)	Apoptosis in MKN-45 cells (percentage induction) (MKN-45 cells [4])	Inhibition (% Inhibition of MKN-45 proliferation) (MKN-45 cells [9])	inhibition at 0.1 µM (MKN-45 cells [9]) [%]
212 to 215	≥ 8.00	≥ 7.30	≤ 25	75 to 100	≥ 7.30	≥ 8.00	≤ 25	≤ 50	NC(=O)c1ccc(-c2ccc3nnn(Cc4ccc5ncccc5c4)c3n2)cc1Cl [Ex 108, 2-Chloro-4-(3-(quinolin-6-ylmethyl)-3H-[1,2,3]triazolo[4,5-b]pyridin-5-yl)benzamide]			A (A = >50 to 100%)		50 to 75
187 to 190	≥ 8.00	≥ 7.30	≤ 25	75 to 100	≥ 7.30	≥ 8.00	≤ 25	≤ 50	CCNC(=O)c1ccc(-c2ccc3nnn(Cc4ccc5ncccc5c4)c3n2)cc1Cl [Ex 119, 2-Chloro-N-ethyl-4-(3-(quinolin-6-ylmethyl)-3H-[1,2,3]triazolo[4,5-b]pyridin-5-yl)benzamide]			A (A = >50 to 100%)	A (A = ≥75 to 100%)	
	≥ 8.00	≥ 7.30	25 to 50	75 to 100	≥ 7.30		50 to 100	≤ 50	NC(=O)c1c(F)cc(-c2ccc3nnn(Cc4ccc5ncccc5c4)c3n2)cc1F [Ex 130, 2,6-Difluoro-4-(3-(quinolin-6-ylmethyl)-3H-[1,2,3]triazolo[4,5-b]pyridin-5-yl)benzamide]			B (B = ≤50)	A (A = ≥75 to 100%)	
